From ChEMBL document CHEMBL1130595, “New generation dopaminergic agents. 5. Heterocyclic bioisosteres that exploit the 3-OH-N1-phenylpiperazine dopaminergic template” (Bioorg Med Chem Lett, 1998)

Columns and labels:
D(3) dopamine receptor = D(3) dopamine receptor (Homo sapiens, UniProt P35462); test: Affinity towards human Dopamine receptor D3 expressed in CHO cells using [3H]spiperone; assay type: cell-based
D(2) dopamine receptor [1] = molecular target: T1, D(2) dopamine receptor (Homo sapiens, UniProt P14416); test: Ratio of the affinity against D2 receptor at low antagonist state to that of D2 receptor at high agonist state; assay type: functional
T1 sequence (P14416 whole entry): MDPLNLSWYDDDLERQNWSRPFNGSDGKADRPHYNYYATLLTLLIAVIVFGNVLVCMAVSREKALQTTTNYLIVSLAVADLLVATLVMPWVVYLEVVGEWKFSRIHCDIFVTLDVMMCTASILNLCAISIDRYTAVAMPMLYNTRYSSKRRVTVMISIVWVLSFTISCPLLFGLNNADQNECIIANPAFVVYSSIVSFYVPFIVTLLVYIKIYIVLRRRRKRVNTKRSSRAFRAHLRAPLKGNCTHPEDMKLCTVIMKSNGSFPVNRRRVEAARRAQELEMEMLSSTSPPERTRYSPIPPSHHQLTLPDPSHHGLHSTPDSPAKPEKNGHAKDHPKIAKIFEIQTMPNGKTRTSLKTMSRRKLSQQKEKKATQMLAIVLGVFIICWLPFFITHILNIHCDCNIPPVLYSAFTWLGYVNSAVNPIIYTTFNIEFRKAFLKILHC

D(2) dopamine receptor [2] = molecular target: T1, D(2) dopamine receptor; test: Affinity towards human Dopamine receptor D2 expressed in CHO cells using [3H]spiperone; assay type: cell-based
D(4) dopamine receptor = molecular target: T2, D(4) dopamine receptor (Homo sapiens, UniProt P21917); test: Affinity towards human Dopamine receptor D4.4 expressed in CHO cells using [3H]spiperone; assay type: cell-based
T2 sequence (P21917 whole entry): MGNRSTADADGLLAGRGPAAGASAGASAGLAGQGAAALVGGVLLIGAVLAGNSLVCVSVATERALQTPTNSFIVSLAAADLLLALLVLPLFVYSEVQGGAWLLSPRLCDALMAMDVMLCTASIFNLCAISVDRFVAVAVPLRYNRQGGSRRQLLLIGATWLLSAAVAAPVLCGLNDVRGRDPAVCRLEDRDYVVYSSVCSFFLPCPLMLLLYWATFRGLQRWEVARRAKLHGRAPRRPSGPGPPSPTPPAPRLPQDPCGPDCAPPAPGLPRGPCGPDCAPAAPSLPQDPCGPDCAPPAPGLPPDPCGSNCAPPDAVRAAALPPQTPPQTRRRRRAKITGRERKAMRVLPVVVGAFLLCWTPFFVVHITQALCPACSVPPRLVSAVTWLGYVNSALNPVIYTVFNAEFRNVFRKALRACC

D(2) dopamine receptor [3] = molecular target: T3, D(2) dopamine receptor (Rattus norvegicus, UniProt P61169)
T3 sequence (P61169 whole entry): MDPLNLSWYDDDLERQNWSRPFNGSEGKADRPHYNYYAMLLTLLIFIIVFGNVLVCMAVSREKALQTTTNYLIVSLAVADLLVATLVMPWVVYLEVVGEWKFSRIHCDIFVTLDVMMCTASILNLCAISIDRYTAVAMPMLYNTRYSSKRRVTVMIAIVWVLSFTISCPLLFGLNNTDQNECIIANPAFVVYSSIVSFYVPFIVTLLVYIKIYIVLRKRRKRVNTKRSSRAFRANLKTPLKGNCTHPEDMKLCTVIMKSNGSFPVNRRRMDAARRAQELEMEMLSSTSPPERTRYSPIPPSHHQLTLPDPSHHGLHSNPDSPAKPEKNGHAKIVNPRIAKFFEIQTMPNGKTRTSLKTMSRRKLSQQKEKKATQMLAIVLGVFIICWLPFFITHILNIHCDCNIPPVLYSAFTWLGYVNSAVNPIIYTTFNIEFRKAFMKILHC
Description: Affinity for Dopamine receptor D2 in rat striatal membranes for high agonist state using [3H]quinpirole

D(2) dopamine receptor [4] = molecular target: T3, D(2) dopamine receptor; test: Affinity of compound for the Dopamine receptor D2 in rat striatal membranes was determined for […] in rat striatal membranes using [3H]spiperone; assay type: functional, cell membranes, Membrane
D(2) dopamine receptor [5] = molecular target: T3, D(2) dopamine receptor; remark: listed apart in the source
Description: Affinity of compound for the Dopamine receptor D2 in rat striatal membranes was determined for low antagonist state in rat striatal membranes using [3H]spiperone

D(2) dopamine receptor [6] = molecular target: T3, D(2) dopamine receptor; test: Affinity of compound for the D2 receptors in rat striatal membranes was determined for low antagonist state in rat striatal membranes using [3H]spiperone; assay type: functional, cell membranes, Membrane

Sequence of D(3) dopamine receptor (P35462 whole entry): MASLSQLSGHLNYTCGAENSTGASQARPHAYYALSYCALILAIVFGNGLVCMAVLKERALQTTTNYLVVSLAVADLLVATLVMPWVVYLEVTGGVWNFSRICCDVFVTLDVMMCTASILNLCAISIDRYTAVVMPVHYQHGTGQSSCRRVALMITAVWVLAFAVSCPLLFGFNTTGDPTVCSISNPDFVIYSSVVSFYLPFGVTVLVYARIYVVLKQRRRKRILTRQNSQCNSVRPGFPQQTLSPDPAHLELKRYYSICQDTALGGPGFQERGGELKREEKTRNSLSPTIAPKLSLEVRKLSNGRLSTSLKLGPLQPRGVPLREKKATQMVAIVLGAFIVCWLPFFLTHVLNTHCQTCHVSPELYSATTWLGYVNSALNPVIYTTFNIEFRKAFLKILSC

## FC(F)(F)c1nc2c(N3CCN(Cc4ccccc4)CC3)cccc2[nH]1
D(3) dopamine receptor
  Ki: 14.7 nM
D(2) dopamine receptor [1]
  Ratio: 6
D(2) dopamine receptor [2]
  Ki: 4.1 nM
D(4) dopamine receptor
  Ki: 2.9 nM
D(2) dopamine receptor [3]
  Ki: 0.51 nM
D(2) dopamine receptor [4]
  Ki: 3.3 nM

## c1ccc(CN2CCN(c3cccc4[nH]cnc34)CC2)cc1
D(3) dopamine receptor
  Ki: 870 nM
D(2) dopamine receptor [1]
  Ratio: 11
D(2) dopamine receptor [5]
  Ki: 107 nM
D(2) dopamine receptor [2]
  Ki: 258 nM
D(4) dopamine receptor
  Ki: 47 nM
D(2) dopamine receptor [3]
  Ki: 9.7 nM

## O=C1Cc2c(ccc(Cl)c2N2CCN(Cc3ccccc3)CC2)N1
D(3) dopamine receptor
  Ki: 591 nM
D(2) dopamine receptor [1]
  Ratio: 7
D(2) dopamine receptor [5]
  Ki: 403 nM
D(2) dopamine receptor [2]
  Ki: 540 nM
D(4) dopamine receptor
  Ki: 8.8 nM
D(2) dopamine receptor [3]
  Ki: 84.8 nM

## c1ccc(CN2CCN(c3cccc4[nH]ccc34)CC2)cc1
D(3) dopamine receptor
  Ki: 35.4 nM
D(4) dopamine receptor
  Ki: 14.7 nM

## Clc1ccc2[nH]ccc2c1N1CCN(Cc2ccccc2)CC1
D(3) dopamine receptor
  Ki: 95.3 nM
D(2) dopamine receptor [1]
  Ratio: 5
D(2) dopamine receptor [2]
  Ki: 81.3 nM
D(4) dopamine receptor
  Ki: 1.7 nM
D(2) dopamine receptor [6]
  Ki: 42.3 nM
D(2) dopamine receptor [3]
  Ki: 9.1 nM

## O=C1Cc2c(cccc2N2CCN(Cc3ccccc3)CC2)N1
D(3) dopamine receptor
  Ki: 5.4 nM
D(2) dopamine receptor [1]
  Ratio: 14
D(2) dopamine receptor [5]
  Ki: 8.1 nM
D(2) dopamine receptor [2]
  Ki: 8 nM
D(4) dopamine receptor
  Ki: 3 nM
D(2) dopamine receptor [3]
  Ki: 0.56 nM

## O=c1[nH]c2cccc(N3CCN(Cc4ccccc4)CC3)c2[nH]1
D(3) dopamine receptor
  Ki: 56.5 nM
D(4) dopamine receptor
  Ki: 14.4 nM

## Brc1ccc(N2CCN(Cc3ccccc3)CC2)c2cc[nH]c12
D(3) dopamine receptor
  Ki: 56 nM
D(2) dopamine receptor [1]
  Ratio: 0.5
D(2) dopamine receptor [5]
  Ki: 12.2 nM
D(2) dopamine receptor [2]
  Ki: 47 nM
D(4) dopamine receptor
  Ki: 2.6 nM
D(2) dopamine receptor [3]
  Ki: 26.8 nM
